In patent publication US12528788B2, “Pesticidally active benzene- and azine-amide compounds” (SYNGENTA CROP PROTECTION AG, priority 2018, dated 2026):

How the values were obtained:
Format in all cases: in vivo
[1] = tested on: Spodoptera littoralis; assay: Example B9: Spodoptera littoralis (Egyptian cotton leaf worm), cotton leaf discs sprayed, L1 larvae; conditions: foliar, 72 h, application rate of 200 ppm, 3 days after infestation, read-out: control in at least one of the three categories (mortality, anti-feedant effect or growth inhibition)
[2] = tested on: Euschistus heros; assay: Example B2: Euschistus heros (neotropical brown stink bug), soybean leaves sprayed, N2 nymphs; conditions: 120 h, application rate of 200 ppm, 5 days after infestation, N2 nymphs on soybean leaves, read-out: control in at least one of the two categories (mortality or growth inhibition)
Description: Example B2: Euschistus heros (Neotropical Brown Stink Bug)
Soybean leaves on agar in 24-well microtiter plates were sprayed with aqueous test solutions prepared from 10′000 ppm DMSO stock solutions. After drying the leaves were infested with N2 nymphs. The samples were assessed for mortality and growth inhibition in comparison to untreated samples 5 days after infestation.

[3] = tested on: Plutella xylostella; assay: Example B5: Plutella xylostella (diamond back moth), artificial diet, 24-well, eggs; conditions: 192 h, application rate of 200 ppm, 8 days after infestation, read-out: control in at least one of the two categories (mortality or growth inhibition)
Description: Example B5: Plutella xylostella (Diamond Back Moth)
24-well microtiter plates with artificial diet were treated with aqueous test solutions prepared from 10′000 ppm DMSO stock solutions by pipetting. After drying, Plutella eggs were pipetted through a plastic stencil onto a gel blotting paper and the plate was closed with it. The samples were assessed for mortality and growth inhibition in comparison to untreated samples 8 days after infestation.

[4] = tested on: Chilo suppressalis; assay: Example B4: Chilo suppressalis (striped rice stemborer), artificial diet, L2 larvae; conditions: 144 h, application rate of 200 ppm, 6 days after infestation, read-out: control in at least one of the three categories (mortality, anti-feedant effect or growth inhibition)
Description: Example B4: Chilo suppressalis (Striped Rice Stemborer)
24-well microtiter plates with artificial diet were treated with aqueous test solutions prepared from 10′000 ppm DMSO stock solutions by pipetting. After drying, the plates were infested with L2 larvae (6-8 per well). The samples were assessed for mortality, anti-feeding effect, and growth inhibition in comparison to untreated samples 6 days after infestation. Control of Chilo suppressalis by a test sample is given when at least one of the categories mortality, anti-feedant effect, and growth inhibition is higher than the untreated sample.

[5] = tested on: Myzus persicae; assay: Example B8: Myzus persicae (green peach aphid) intrinsic activity; conditions: 120 h, test rate of 12 ppm, 5 days after infestation, sucrose solution
Text: Example B8: Myzus persicae (Green Peach Aphid). Intrinsic Activity
Test compounds prepared from 10′000 ppm DMSO stock solutions were applied by pipette into 24-well microtiter plates and mixed with sucrose solution. The plates were closed with a stretched Parafilm. A plastic stencil with 24 holes was placed onto the plate and infested pea seedlings were placed directly on the Parafilm. The infested plate was closed with a gel blotting paper and another plastic stencil and then turned upside down. The samples were assessed for mortality 5 days after infestation.

[6] = tested on: Diabrotica balteata; assay: Example B1: Diabrotica balteata (corn root worm), maize sprouts sprayed, L2 larvae; conditions: 96 h, application rate of 200 ppm, 4 days after infestation, L2 larvae on maize sprouts, read-out: control in at least one of the two categories (mortality or growth inhibition)
Description: Example B1: Diabrotica balteata (Corn Root Worm)
Maize sprouts placed onto an agar layer in 24-well microtiter plates were treated with aqueous test solutions prepared from 10′000 ppm DMSO stock solutions by spraying. After drying, the plates were infested with L2 larvae (6 to 10 per well). The samples were assessed for mortality and growth inhibition in comparison to untreated samples 4 days after infestation.

[7] = tested on: Spodoptera littoralis; assay: Example B10: Spodoptera littoralis (Egyptian cotton leaf worm), uptake by lettuce roots from agar; conditions: 144 h, test rate of 12.5 ppm, 6 days after infestation, lettuce grown on treated agar, read-out: control in at least one of the three categories (mortality, anti-feeding, or growth inhibition)
Text: Example B10: Spodoptera littoralis (Egyptian Cotton Leaf Worm)
Test compounds were applied by pipette from 10′000 ppm DMSO stock solutions into 24-well plates and mixed with agar. Lettuce seeds were placed onto the agar and the multi well plate was closed by another plate which contained also agar. After 7 days the compound was absorbed by the roots and the lettuce grew into the lid plate. The lettuce leaves were then cut off into the lid plate. Spodoptera eggs were pipetted through a plastic stencil onto a humid gel blotting paper and the lid plate was closed with it. The samples were assessed for mortality, anti-feedant effect and growth inhibition in comparison to untreated samples 6 days after infestation.

[8] = tested on: Myzus persicae; assay: Example B7: Myzus persicae (green peach aphid) systemic activity; conditions: 144 h, test rate of 24 ppm, 6 days after placing seedlings into test solutions, pea seedlings
Description: Example B7: Myzus persicae (Green Peach Aphid) Systemic Activity
Roots of pea seedlings infested with an aphid population of mixed ages were placed directly into aqueous test solutions prepared from 10′000 DMSO stock solutions. The samples were assessed for mortality 6 days after placing seedlings into test solutions.

[9] = tested on: Plutella xylostella; assay: Example B14: Plutella xylostella (diamondback moth), 96-well artificial diet; conditions: 216 h, application rate of 500 ppm, 9 days after infestation
Description: Example B14: Plutella xylostella (Diamondback Moth)
96-well microtiter plates containing artificial diet were treated with aqueous test solutions, prepared from 10′000 ppm DMSO stock solutions, by a liquid handling robot. After drying, eggs (˜30 per well) were infested onto a netted lid which was suspended above the diet. The eggs hatch and L1 larvae move down to the diet. The samples were assessed for mortality 9 days after infestation.

[10] = tested on: Myzus persicae; assay: Example B13: Myzus persicae (green peach aphid), 96-well sucrose solution; conditions: 120 h, application rate of 50 ppm, 5 days after infestation
Text: Example B13: Myzus persicae (Green Peach Aphid)
Test compounds prepared from 10′000 ppm DMSO stock solutions were applied by a liquid handling robot into 96-well microtiter plates and mixed with a sucrose solution. Parafilm was stretched over the 96-well microtiter plate and a plastic stencil with 96 holes was placed onto the plate. Aphids were sieved into the wells directly onto the Parafilm. The infested plates were closed with a gel blotting card and a second plastic stencil and then turned upside down. The samples were assessed for mortality 5 days after infestation.

[11] = tested on: Tetranychus urticae; assay: Example B11: Tetranychus urticae (two-spotted spider mite) feeding/contact activity; conditions: foliar, 192 h, application rate of 200 ppm, 8 days after infestation, bean leaf discs, mixed population (mobile stages)
Description: Example B11: Tetranychus urticae (Two-Spotted Spider Mite): Feeding/Contact Activity
Bean leaf discs on agar in 24-well microtiter plates were sprayed with aqueous test solutions prepared from 10′000 ppm DMSO stock solutions. After drying the leaf discs were infested with a mite population of mixed ages. The samples were assessed for mortality on mixed population (mobile stages) 8 days after infestation.

CC(NC(=O)c1cc(C(F)(F)F)cc(C(F)(F)F)c1)c1nccnc1-c1ncccn1 (stereo not shown) [Compound P12, N-[1-(3-pyrimidin-2-ylpyrazin-2-yl)ethyl]-3,5-bis(trifluoromethyl)benzamide]
≥ 80%: percent control (mortality, anti-feedant effect or growth inhibition) at 200 ppm [1] | percent control (mortality or growth inhibition) at 200 ppm [2] | percent control (mortality or growth inhibition) at 200 ppm [3] | percent control (mortality, anti-feedant effect or growth inhibition) at 200 ppm [4] | mortality at 12 ppm [5] | percent control (mortality or growth inhibition) at 200 ppm [6]

CC(NC(=O)c1cc(OCC(F)F)cc(C(F)(F)F)c1)c1nccnc1-c1ncccn1 (stereo not shown) [Compound P14, 3-(2,2-difluoroethoxy)-N-[1-(3-pyrimidin-2-ylpyrazin-2-yl)ethyl]-5-(trifluoromethyl)benzamide]
≥ 80%: percent control (mortality, anti-feeding or growth inhibition) at 12.5 ppm [7] | percent control (mortality, anti-feedant effect or growth inhibition) at 200 ppm [1] | percent control (mortality or growth inhibition) at 200 ppm [2] | mortality at 24 ppm [8] | percent control (mortality or growth inhibition) at 200 ppm [3] | percent control (mortality, anti-feedant effect or growth inhibition) at 200 ppm [4] | mortality at 500 ppm [9] | mortality at 12 ppm [5] | mortality at 50 ppm [10]

CC(NC(=O)c1cc(C(F)(F)F)nc(C(F)(F)F)c1)c1nccnc1-c1ncccn1 (stereo not shown) [Compound P15, N-[1-(3-pyrimidin-2-ylpyrazin-2-yl)ethyl]-2,6-bis(trifluoromethyl)pyridine-4-carboxamide]
≥ 80%: percent control (mortality, anti-feedant effect or growth inhibition) at 200 ppm [1] | percent control (mortality or growth inhibition) at 200 ppm [2] | percent control (mortality or growth inhibition) at 200 ppm [3] | percent control (mortality, anti-feedant effect or growth inhibition) at 200 ppm [4] | mortality at 500 ppm [9] | mortality at 12 ppm [5] | mortality at 50 ppm [10] | percent control (mortality or growth inhibition) at 200 ppm [6]

CC(NC(=O)c1cc(Cl)cc(OC(F)(F)F)c1)c1nccnc1-c1ncccn1 (stereo not shown) [Compound P16, 3-chloro-N-[1-(3-pyrimidin-2-ylpyrazin-2-yl)ethyl]-5-(trifluoromethoxy)benzamide]
≥ 80%: percent control (mortality, anti-feeding or growth inhibition) at 12.5 ppm [7] | percent control (mortality, anti-feedant effect or growth inhibition) at 200 ppm [1] | percent control (mortality or growth inhibition) at 200 ppm [2] | percent control (mortality or growth inhibition) at 200 ppm [3] | percent control (mortality, anti-feedant effect or growth inhibition) at 200 ppm [4] | mortality at 500 ppm [9] | mortality at 12 ppm [5] | mortality at 50 ppm [10] | percent control (mortality or growth inhibition) at 200 ppm [6]

CC(NC(=O)c1cc(OCC(F)(F)F)cc(C(F)(F)F)c1)c1nccnc1-c1ncccn1 (stereo not shown) [Compound P17, N-[1-(3-pyrimidin-2-ylpyrazin-2-yl)ethyl]-3-(2,2,2-trifluoroethoxy)-5-(trifluoromethyl)benzamide]
≥ 80%: percent control (mortality, anti-feedant effect or growth inhibition) at 200 ppm [1] | percent control (mortality or growth inhibition) at 200 ppm [2] | percent control (mortality or growth inhibition) at 200 ppm [3] | percent control (mortality, anti-feedant effect or growth inhibition) at 200 ppm [4] | mortality at 500 ppm [9] | mortality at 12 ppm [5] | mortality at 50 ppm [10]

CC(NC(=O)c1cc(C(F)(F)F)cc(C(F)(F)F)c1)c1nccnc1-c1ccc(F)cn1 (stereo not shown) [Compound P18, N-[1-[3-(5-fluoro-2-pyridyl)pyrazin-2-yl]ethyl]-3,5-bis(trifluoromethyl)benzamide]
≥ 80%: percent control (mortality, anti-feedant effect or growth inhibition) at 200 ppm [1] | percent control (mortality, anti-feedant effect or growth inhibition) at 200 ppm [4] | mortality at 500 ppm [9] | mortality at 50 ppm [10] | mortality at 200 ppm [11] | percent control (mortality or growth inhibition) at 200 ppm [6]

CC(NC(=O)c1cc(Br)cc(C(F)(F)F)c1)c1nccnc1-c1ncccn1 (stereo not shown) [Compound P20, 3-bromo-N-[1-(3-pyrimidin-2-ylpyrazin-2-yl)ethyl]-5-(trifluoromethyl)benzamide]
≥ 80%: percent control (mortality, anti-feeding or growth inhibition) at 12.5 ppm [7] | percent control (mortality, anti-feedant effect or growth inhibition) at 200 ppm [1] | percent control (mortality or growth inhibition) at 200 ppm [2] | percent control (mortality or growth inhibition) at 200 ppm [3] | percent control (mortality, anti-feedant effect or growth inhibition) at 200 ppm [4] | mortality at 500 ppm [9] | mortality at 12 ppm [5] | mortality at 50 ppm [10] | percent control (mortality or growth inhibition) at 200 ppm [6]

CC(NC(=O)c1cc(Cl)cc(C(F)(F)F)c1)c1nccnc1-c1ncccn1 (stereo not shown) [Compound P21, 3-chloro-N-[1-(3-pyrimidin-2-ylpyrazin-2-yl)ethyl]-5-(trifluoromethyl)benzamide]
≥ 80%: percent control (mortality, anti-feeding or growth inhibition) at 12.5 ppm [7] | percent control (mortality, anti-feedant effect or growth inhibition) at 200 ppm [1] | percent control (mortality or growth inhibition) at 200 ppm [2] | percent control (mortality or growth inhibition) at 200 ppm [3] | percent control (mortality, anti-feedant effect or growth inhibition) at 200 ppm [4] | mortality at 500 ppm [9] | mortality at 12 ppm [5] | mortality at 50 ppm [10] | percent control (mortality or growth inhibition) at 200 ppm [6]

CC(NC(=O)c1cc(C(F)F)cc(C(F)(F)F)c1)c1nccnc1-c1ncccn1 (stereo not shown) [Compound P22, 3-(difluoromethyl)-N-[1-(3-pyrimidin-2-ylpyrazin-2-yl)ethyl]-5-(trifluoromethyl)benzamide]
≥ 80%: percent control (mortality, anti-feeding or growth inhibition) at 12.5 ppm [7] | percent control (mortality, anti-feedant effect or growth inhibition) at 200 ppm [1] | percent control (mortality or growth inhibition) at 200 ppm [2] | mortality at 24 ppm [8] | percent control (mortality or growth inhibition) at 200 ppm [3] | percent control (mortality, anti-feedant effect or growth inhibition) at 200 ppm [4] | mortality at 500 ppm [9] | mortality at 12 ppm [5] | mortality at 50 ppm [10] | percent control (mortality or growth inhibition) at 200 ppm [6]
